From patent US20220257764A1, “USE OF DIKETONE COMPOUND IN PHOTODYNAMIC THERAPY OR DIAGNOSIS” (BEIJING WHOLESOMETECH CO., LTD., priority 2019, published 2022) come the findings set out here.

Like-named read-outs stand apart in the source and are kept apart here.

Usually IC50 stands for the midpoint of a concentration-inhibition curve. Read a high IC50 as weaker potency. For orientation: inhibition means the drop in the measured response relative to a control, in per cent.

Type in all cases: cell-based
Data set [1] deals with human immortalized keratinocyte (Hacat cells). Kind of data set: MTT cytotoxicity to normal cells, Experimental Example 5. The settings on record: given under red light, 630-650 nm, 110 mW/cm^2, 900 s, 3 h incubation. The method, then:
(1) Logarithmic phase cells were collected, the concentration of a cell suspension was adjusted, the cell suspension was added to a cell culture plate in a dose of 100 μL per well, and the cells were then added to a cell culture plate so that the density of the cells to be tested was adjusted to 1000-10000 wells (edge wells were filled with sterile PBS). […] Generally, the drug in 5 to 7 gradients was added in a dose of 100 μL per well, and 3 to 5 wells were set for each concentration of a drug. […] Cells in the experimental photosensitizer-light irradiation group were incubated for 15 min and then irradiated with light. […] After light irradiation, the cells were washed with PBS. […] After light irradiation, the cells were washed with PBS. […] If the drug could react with the MTT, centrifuging was carried out first, and then the culture solution was discarded and the cells were carefully washed twice or three times with PBS, and then the culture solution containing MTT was added. (6) The culture was terminated and the culture solution in the wells was carefully removed. (7) Dimethyl sulfoxide was added in a dose of 150 μL per well, and the plate was then shaken on a shaker at a low speed for 10 min to fully dissolve crystals. The absorbance at OD 490 nm of each well was measured with enzyme-linked immunoassay. […]

Another data set deals with Hela cells. Kind of data set: MTT toxicity to tumor cells, under light and in the dark. As to conditions: Homo sapiens. Here is the method:
(§1) In this experimental example, the toxicity of the compound to tumor cells was tested by an MTT method including the following specific steps.
(§2) (1) Logarithmic cells were collected, the concentration of a cell suspension was adjusted, the cell suspension was added to a cell culture plate in a dose of 100 μL per well, and the cells were then added to a cell culture plate so that the density of the cells to be tested was adjusted to 1000-10000 wells (edge wells were filled with sterile PBS).
(§3) (2) The cells were incubated at 37° C. in the presence of 5% CO2 until the cells in a single layer covered the bottom of each well (96-well flat-bottom plate), and a drug in concentration gradients was added. Generally, the drug in 5 to 7 gradients was added in a dose of 100 μL per well, and 3 to 5 multi-wells were set.
(§4) (3) The cells were randomly divided into treated groups under light and treated groups in the dark, incubated at 37° C. in the presence of 5% CO2 for 16 h to 48 h, and observed with an inverted microscope.
(§5) (4) The cells were irradiated for 900 s with a laser having a wavelength of 450 nm to 480 nm (at an intensity of 110 mW/cm^2), and the final light dose was about 100 J/cm^2. After light irradiation, the cells were washed with PBS.
(§6) (5) An MTT solution (5 mg/ml, 0.5% MTT) was added in a dose of 20 μL per well to further incubate the cells for 4 h. If the drug could react with the MTT, centrifuging was carried out first, and then the culture solution was discarded and the cells were carefully washed twice or three times with PBS, and then the culture solution containing MTT was added.
(§7) (6) The culture was terminated and the culture solution in the wells was carefully removed.
(§8) (7) Dimethyl sulfoxide was added in a dose of 150 μL per well, and the plate was then shaken on a shaker at a low speed for 10 min to fully dissolve crystals. The absorbance at OD 490 nm of each well was measured with enzyme-linked immunoassay.
(§9) (8) Zero adjustment wells (medium, MTT, dimethyl sulfoxide) and control wells (cells, dissolving media of the same concentration, culture solution, MTT, dimethyl sulfoxide) were set at the same time.

In a further data set the test system is SW480 colon cancer cells. The description is as above. The settings on record: Homo sapiens. Here is the method: as §1, §2, §3, §4, §5, §6, §7, §8, §9
The test system of a further data set is Escherichia coli. Kind of data set: Inhibitory effect on bacteria (colony counting), under light and in the dark. Here is the method:
A single Escherichia coli colony was transferred from a solid Luria Bertani (LB) agar plate to 5 ml liquid LB medium and incubated at 37° C. for 12 h. Bacteria were collected by centrifugation (7000 rpm, 1 min) and washed with PBS buffer three times. The supernatant was discarded, and the remaining Escherichia coli cells were resuspended in the PBS buffer. The bacterial suspension was adjusted to make its optical density (OD600) to 1.0. The suspension was then diluted (5 times) with PBS buffer. The diluted Escherichia coli cell suspension was incubated in the dark at 37° C. for 15 min in the presence of a photosensitizer (diketone compound) solution with a concentration of 60 mM, and then irradiated for 200 s under a 15 mW/cm^2 laser light (with a wavelength of 450 nm to 480 nm and in the final light dose of about 3 J cm^2), and after the irradiation the bacterial suspension was serially diluted (10^4 times) with PBS buffer. 100 μL of the diluted bacterial Escherichia coli cell was dispersed on a solid LB agar plate and incubated at 37° C. for 12 h to 16 h, and colonies formed were counted. In the meanwhile, a treated group in the dark and an untreated group in the dark were set; the inhibition rate was determined by dividing the number of colony forming units (cfu) killed in the treated group under light or the treated group in the dark by the number of colony forming units (cfu) killed in the untreated group in the dark.

A further data set deals with B16 melanoma cell. Kind of data set: MTT toxicity to tumor cells, under light and in the dark. The settings on record: Mus musculus, under light, 450-480 nm laser, 110 mW/cm^2, 900 s. The method, then:
as §1, §2, §3, §4, §5, §6, §7, §8, §9

[2] abbreviates: SW480, under light, 450-480 nm laser, 110 mW/cm^2, 900 s.
The mark [3] stands for this setting: read-out: Inhibition rate in the dark.
Where [4] appears, read: read-out: Inhibition rate under light.
Setting [5] is: under light, 450-480 nm laser, 110 mW/cm^2, 900 s.
Setting [6] is: 60 mM, 450-480 nm laser, 15 mW/cm^2, 200 s, read-out: Inhibition rate under light.
The mark [7] stands for this setting: 60 mM, in the dark, read-out: Inhibition rate in the dark.

On to `NCC(=O)CCC(=O)O` [ALA, 5-α aminolevulinic acid, reference compound], for which the “cytotoxicity to Hacat cells” value in data set [1] is listed as “relatively high cytotoxicity”.
On to `CCC(=O)C(=O)CC` [BJMU-201], for which the results for the IC50 with Hela cells (in the dark) and in the data set with SW480 colon cancer cells (setting [2]) were 59.9 ± 9.9 µM and 63.9 ± 10.5 µM, respectively. Besides, the inhibition at 60000 µM is 4.9% in the data set on Escherichia coli (setting [3]) and 58% in the data set on Escherichia coli (setting [4]).
In the case of `CCCC(=O)C(C)=O` [BJMU-202], the 50% inhibitory concentration (IC50) worked out at 2.9 ± 0.1 µM in the data set with B16 melanoma cell, 2.6 ± 0.6 µM in the data set on Hela cells (setting [5]) and 2.5 ± 0.5 µM in the data set on SW480 colon cancer cells (setting [2]). In addition, the inhibition at 60000 µM is 90 ± 3% in the data set with Escherichia coli (setting [6]) and 8.6% with Escherichia coli (setting [7]).
For the compound `CC(=O)C(=O)CBr` [BJMU-203], the IC50 in the data set with B16 melanoma cell came to 2.7 ± 0.9 µM; with Hela cells (setting [5]), 2.8 ± 1.1 µM; in the data set on SW480 colon cancer cells (setting [2]), 3.1 ± 0.5 µM. Besides, the results for the inhibition at 60000 µM in the data set on Escherichia coli (setting [6]) and in the data set with Escherichia coli (setting [7]) were 93% and 4.5%, respectively.
Regarding `CCCCC(=O)C(C)=O` [BJMU-205], the half-maximal inhibitory concentration (IC50) stood at 6.6 ± 1.8 µM in the data set on B16 melanoma cell, 5.7 ± 1.7 µM in the data set with Hela cells (setting [5]) and 6.4 ± 1.9 µM in the data set with SW480 colon cancer cells (setting [2]). Also, the inhibition at 60000 µM in the data set on Escherichia coli (setting [6]) is 80%; in the data set with Escherichia coli (setting [7]) it was 2%.
As to `CC(=O)C(=O)CC(C)C` [BJMU-206], the values for the concentration for half-maximal inhibition (IC50) in the data set on B16 melanoma cell, in the data set on Hela cells (setting [5]) and in the data set with SW480 colon cancer cells (setting [2]) were 144 ± 32.5 µM, 141 ± 37.4 µM and 144 ± 31.9 µM, respectively. Moreover, the inhibition at 60000 µM in the data set with Escherichia coli (setting [6]) is 46%; in the data set on Escherichia coli (setting [7]), 11.5%.
Regarding `O=C(O)C(=O)c1ccccc1` [BJMU-207], the concentration for half-maximal inhibition (IC50) turned out to be 96.6 ± 26.3 µM in the data set on B16 melanoma cell, 93.3 ± 20.3 µM in the data set with Hela cells (setting [5]) and 99.2 ± 25.7 µM in the data set with SW480 colon cancer cells (setting [2]). For the same compound, the inhibition at 60000 µM in the data set on Escherichia coli (setting [6]) stood at 64%; in the data set on Escherichia coli (setting [7]) it was 7.3%.
For `CC(=O)C(=O)O` [BJMU-208], the 50% inhibitory concentration (IC50) in the data set on B16 melanoma cell amounted to 174 ± 10.9 µM; with Hela cells (setting [5]), 162 ± 10.1 µM; in the data set with SW480 colon cancer cells (setting [2]), 173 ± 10.8 µM. For the same compound, the values for the inhibition at 60000 µM in the data set on Escherichia coli (setting [6]) and in the data set with Escherichia coli (setting [7]) were 45% and 8%, respectively.
Regarding `O=C(C(=O)c1ccccc1)c1ccccc1` [BJMU-209], the half-maximal inhibitory concentration (IC50) in the data set with Hela cells (in the dark) came to 8200 ± 530 µM; with SW480 colon cancer cells (setting [2]) it was 7800 ± 480 µM. The inhibition at 60000 µM in the data set with Escherichia coli (setting [3]) amounted to 9.5%; in the data set with Escherichia coli (setting [4]) it was 26%.
For `O=C(C(=O)c1ccncc1)c1ccncc1` [BJMU-210], the IC50 in the data set on B16 melanoma cell is 9800 ± 700 µM; in the data set on Hela cells (setting [5]) it was 9900 ± 700 µM; in the data set with SW480 colon cancer cells (setting [2]), 9600 ± 600 µM. In addition, the figures for the inhibition at 60000 µM with Escherichia coli (setting [6]) and with Escherichia coli (setting [7]) were 24% and 6.4%, respectively.
For the compound `O=C(C(=O)c1ccc(Br)cc1)c1ccc(Br)cc1` [BJMU-211], the IC50 worked out at 95000 ± 21300 µM in the data set with SW480 colon cancer cells (SW480, in the dark) and 3200 ± 230 µM in the data set on SW480 colon cancer cells (setting [2]).
In the case of `O=C(C(=O)c1ccc(F)cc1)c1ccc(F)cc1` [BJMU-212], the concentration for half-maximal inhibition (IC50) in the data set with SW480 colon cancer cells (SW480, in the dark) was determined as 99000 ± 15800 µM; in the data set on SW480 colon cancer cells (setting [2]) it was 2800 ± 210 µM.
With `COc1ccc(C(=O)C(=O)c2ccc(OC)cc2)cc1` [BJMU-213], the IC50 was determined as 6400 ± 400 µM in the data set on Hela cells (in the dark) and 6600 ± 370 µM in the data set with SW480 colon cancer cells (setting [2]).
For the compound `O=C(C(=O)c1ccco1)c1ccco1` [BJMU-214], the values for the half-maximal inhibitory concentration (IC50) in the data set with B16 melanoma cell, with Hela cells (setting [5]) and with SW480 colon cancer cells (setting [2]) were 9000 ± 510 µM, 8800 ± 480 µM and 8900 ± 500 µM, respectively. Also, the inhibition at 60000 µM with Escherichia coli (setting [6]) stood at 23%; in the data set with Escherichia coli (setting [7]) it was 5.6%.
